Measurements: patent US20140360727A1, “REMEDIATION OF ASPHALTENE-INDUCED PLUGGING OF AN OIL-BEARING FORMATION” (SHELL OIL COMPANY, priority 2013, published 2014)
Read-outs that look alike come from different tables or passages of the source.

Tests used:
Format in all cases: physicochemical
[1] = SARA analysis of bitumen samples extracted from oil sands by each solvent
Method: The bitumen samples extracted at 30° C. from each oil sands sample were evaluated by SARA analysis to determine the saturates, aromatics, resins, and asphaltenes composition of the bitumen samples extracted by each solvent.

[2] = Extraction of mined oil sands with solvents (cyclic contact and drain); conditions: 10 C and 30 C; FIGS. 4 and 5 and Table 1
Method: Each oil sands sample was weighed and placed in a cellulose extraction thimble that was placed on a porous polyethylene support disk in a jacketed glass cylinder with a drip rate control valve. Each oil sands sample was then extracted with a selected solvent at a selected temperature (10° C. or 30° C.) in a cyclic contact and drain experiment, where the contact time ranged from 15 to 60 minutes. Fresh contacting solvent was applied and the cyclic extraction repeated until the fluid drained from the apparatus became pale brown in color.
The extracted fluids were stripped of solvent using a rotary evaporator and thereafter vacuum dried to remove residual solvent. […] The residual solids and extraction thimble were air dried, weighed, and then vacuum dried.

[3] = Time required to entirely dissolve naturally occurring tar mat material; conditions: DMS versus A150, both experiments
Method: Two experiments were conducted on a naturally occurring tar mat material recovered from an oil-bearing formation to compare the rate of dissolution of the tar mat material using dimethyl sulfide and A150, a commercially available solvent comprised of a mixture of aromatic hydrocarbons that is commonly used to dissolve tar mats. A naturally occurring tar mat material recovered from an oil-bearing formation at a depth of 4690 meters and at a formation temperature of 50° C. was utilized as the tar mat material for the comparison.
(§1) In the first experiment, two samples of DMS solvent and two samples of A150 solvent were individually mixed with the tar mat material at ambient temperature and pressure, where the volume (ml) to weight (g) ratio of each solvent sample to the tar mat material was approximately 100:1. The length of time required to entirely dissolve the tar mat material was measured and recorded.
as §1, with “second” for “first”, “four” for “two”, “10:1.” for “100:1.”

| SMILES | Aromatics, oil composition of extracted bitumen ([1]; bitumen extracted at 30 C) | Asphaltenes, oil composition of extracted bitumen ([1]; bitumen extracted at 30 C) | Resins, oil composition of extracted bitumen ([1]; bitumen extracted at 30 C) | Saturates, oil composition of extracted bitumen ([1]; bitumen extracted at 30 C) | Aromatics, oil composition of extracted bitumen [1] | Asphaltenes, oil composition of extracted bitumen [1] | Resins, oil composition of extracted bitumen [1] | Recovery of bitumen from oil sand material versus best known fluids [2] | Effectiveness for extraction of asphaltenes from oil sands (SARA) ([1]; bitumen extracted at 30 C) | Rate of tar mat dissolution relative to A150 [3] |
| --- | --- | --- | --- | --- | --- | --- | --- | --- | --- | --- |
| S=C=S [Carbon Disulfide, carbon disulfide] | 41.89 Normalized Weight Percent | 13.85 Normalized Weight Percent | 25.49 Normalized Weight Percent | 18.77 Normalized Weight Percent | – | – | – | – | – | – |
| ClC(Cl)Cl [Chloroform, chloroform] | – | – | – | 15.64 Normalized Weight Percent | 43.56 Normalized Weight Percent | 14.86 Normalized Weight Percent | 25.94 Normalized Weight Percent | – | – | – |
| CSC [Dimethyl Sulfide, dimethyl sulfide] | 47.07 Normalized Weight Percent | 13.19 Normalized Weight Percent | 24.25 Normalized Weight Percent | 15.49 Normalized Weight Percent | – | – | – | comparable | excellent miscibility properties | not less than 1.4 times |
| C1CCOC1 [Tetrahydrofuran, tetrahydrofuran] | 45.24 Normalized Weight Percent | 14.27 Normalized Weight Percent | 24.38 Normalized Weight Percent | 16.11 Normalized Weight Percent | – | – | – | – | – | – |
| Cc1ccccc1C [o-Xylene, o-xylene] | 46.39 Normalized Weight Percent | 13.96 Normalized Weight Percent | 22.28 Normalized Weight Percent | 17.37 Normalized Weight Percent | – | – | – | – | – | – |
